Experimental data taken from ChEMBL document CHEMBL3576800, “Discovery of a Potent and Orally Bioavailable Dual Antagonist of CC Chemokine Receptors 2 and 5” (ACS Med Chem Lett, 2015).

How the values were obtained:
Liver microsome = details: rat, microsomes
Description: Drug metabolism in rat liver microsomes

Mus musculus = species on record: Mus musculus; details: in vivo, po, 10 mg/kg, 4 h
[1] = Clearance in Sprague-Dawley rat at 2.5 mg/kg, iv after 0.25 to 24 hrs by LC/MS/MS method; type: ADME, organism-based; details: in vivo
[2] = AUC in Sprague-Dawley rat at 25 mg/kg, po after 0.25 to 24 hrs by LC/MS/MS method; type: ADME, organism-based; parameters: time upper 24 hr, dose 25 mg/kg, time lower 0.25 hr, route oral; details: in vivo
[3] = Clearance in cynomolgus monkey at 1 mg/kg, iv after 0.25 to 24 hrs by LC/MS/MS method; type: ADME, organism-based, Macaca fascicularis; details: in vivo
[4] = Oral bioavailability in cynomolgus monkey at 1.4 mg/kg after 0.25 to 24 hrs by LC/MS/MS method; type: ADME, organism-based, Macaca fascicularis; details: in vivo
[5] = Oral bioavailability in Sprague-Dawley rat at 25 mg/kg after 0.25 to 24 hrs by LC/MS/MS method; type: ADME, organism-based; details: in vivo
[6] = AUC in cynomolgus monkey at 1.4 mg/kg, po after 0.25 to 24 hrs by LC/MS/MS method; type: ADME, organism-based, Macaca fascicularis; parameters: time 0.25-24 hr, dose 1.4 mg/kg, route oral; details: in vivo

SMILES | Drug metabolism (Liver microsome) | AUC/dose (Mus musculus) | also measured
CCCC[C@@H]1C[C@H](N(C)C(C)C)CC[C@@H]1NC(=O)CNC(=O)c1cccc(C(F)(F)F)c1 | 0.17 nmol/min/mg | – | –
COC[C@@H]1C[C@H](N(C)C(C)C)CC[C@@H]1NC(=O)CNC(=O)c1cccc(C(F)(F)F)c1 | 0.01 nmol/min/mg | – | –
CCC[C@@H]1C[C@H](N(C)C(C)C)CC[C@@H]1N1CC[C@H](Nc2ncnc3ccc(C(F)(F)F)cc23)C1=O | – | 22 µM·h | clearance [1]: 40 mL/min/kg; AUC [2]: 9.29 µM·h; clearance [3]: 25 mL/min/kg; bioavailability [4]: 46%; bioavailability [5]: 68%; AUC [6]: 0.862 µM·h
CC(C)N(C)[C@@H]1CC[C@H](NC(=O)CNC(=O)c2cccc(C(F)(F)F)c2)[C@H](CS(=O)(=O)c2ccccc2)C1 | 0.16 nmol/min/mg | 1.1 µM·h | –
CC(C)N(C)[C@@H]1CC[C@H](NC(=O)CNC(=O)c2cccc(C(F)(F)F)c2)[C@H](COc2ccccc2)C1 | 0.29 nmol/min/mg | – | –
